# Legend:
# [1] = molecular target: T1, recombinant human inosine monophosphate dehydrogenase 2 (IMPDH2) (Homo sapiens, UniProt P12268); assay: IMPDH2 enzyme assay with reaction extracts; assay type: biochemical; details: role: inhibitor; extract of overnight reaction of 9 with NAMPT and NMNAT added at 40% v/v; 500 uM NAD, 250 uM IMP
# T1 construct: NADH absorbance assay with extracts of NAMPT/NMNAT reactions
# Source text: Given that vacor, 3-AP, and compound 21 are all metabolized to toxic, NAD-like derivatives through NAMPT and NMNAT, we hypothesized that their anti-cancer activity may also depend on SARM1. To test this, we compared the toxic effects of vacor, 3-AP, and 9 in either wild type cells or cells in which we used CRISPR to silence SARM1. […] These observations highlight that even though these different scaffolds are toxified through the same mechanism, the resulting metabolites may have different activities. We next co-titrated guanosine, which is known to rescue tiazofurin by bypassing IMPDH in guanylate synthesis, with each of the above small molecules. […] To test this hypothesis, we set up in vitro reactions with different combinations of 9, NAMPT and NMNAT. After incubation, metabolites were extracted, reconstituted in aqueous solution and then co-incubated with an established IMPDH2 enzyme assay.
# IMPDH activity was measured by monitoring NADH production through the change in absorbance at […] as previously described [PMID: 13428767]. […] Absorbance was measured every 30 seconds for 30 minutes on a BioTek Cytation 5 plate reader (Agilent, USA) at 37 °C. IMPDH2 activity was determined from the slope of absorbance vs. time plots. […]
# resistant iHCT116 clones = assay: Metabolism of 9 in resistant iHCT116 clones; assay type: cell-based; details: parental and resistant clones
# Source text: The experiments described above are consistent with the model that both 1 and 9 are converted by NAMPT and NMNAT1 into their respective MN and AD metabolites. It remains unclear, however, which of these two metabolites is contributing to toxicity. To address this question, we measured 9 metabolism, 9-MN and 9-AD levels upon treatment of the resistant clones identified through forward genetics. […] Clones 5 and 7 were resistant to 9 but had normal NAMPT and NMINAT levels.
# Prior to the experiment, cells were cultured in low-Nam DMEM for at least 1 passage (3 days) to deplete intracellular Nam. 15,000 cells were plated in a 96-well plate with 100 μL low-Nam media. At appropriate time points, 500 nM 1 or 9, or equal volume of vehicle (DMSO) were added using TECAN. 200 μL of acetonitrile with 0.1% formic acid were added to the assayed wells. For the 0-hour time point, compound or vehicle was added after the addition of acetonitrile and formic acid. Following incubation for 10 minutes at room temperature, samples were transferred to Eppendorf tubes and centrifuged at 20,000×g for 5 minutes. The supernatants were filtered through 0.2 μm PVDF filters and analyzed by LC-MS/TOF.
# iHCT116 cells = assay: Forward genetics resistance selection (IAA-inducible mutagenesis); assay type: cell-based
# Source text: Second, we screened for resistance to 9 in iHCT116 cells, a system that uses inducible mutagenesis and forward genetics to find compound-resistant mutations and thus can reveal both loss of function and gain of function alleles that suppress activity. The iHCT116 system is a barcoded cell line in which we temporally control mutagenesis by the addition of indole acetic acid (IAA) mediated degradation of the mismatch repair protein MLH1.^12 MLN4924 is a small molecule toxin that we use as a positive control to verify that IAA treatment leads to increased mutations. By degrading MLH1 and increasing the overall mutation rate, IAA treatment increases the frequency of UBA3 mutations, leading to a higher rate of MLN4924 resistance. […] Having previously established a relationship between either NMNAT1 levels or NAMPT activity and compound resistance, we analyzed the levels of both enzymes in multiple resistant clones that harbored unique barcode sequences. […] To test whether reduced NMNAT1 levels in these clones contributed to resistance, we ectopically expressed NMNAT1 in either the parental cells or a representative resistant clone with low NMNAT1 expression.
# [2] = resistant clones with unique barcodes
compound,measurement,setting,value
"O=C(Nc1cccs1)c1cccnc1 [Compound 9, N-(Thiophen-2-yl)nicotinamide]",inhibition of IMPDH activity,[1],substantial inhibition
same,metabolism of 9 over time,resistant iHCT116 clones,metabolized over time
same,NAMPT levels in 9-resistant clones,iHCT116 cells; [2],the same in all clones
same,NMNAT1 protein levels downregulated in 9-resistant clones,iHCT116 cells; [2],five out of eight clones
same,difference in number of surviving clones Mut-off vs Mut-on,iHCT116 cells; three lethal selection concentrations of 9,did not observe a substantial difference
